Patent US8791267B2, “Biaryl PDE4 inhibitors for treating inflammatory, cardiovascular and CNS disorders” (Decode Genetics EHF, priority 2007, dated 2014)
pIC50: −log10 of the molar value. Like-named read-outs stand apart in the source and are kept apart here.

How the values were obtained:
PDE4 = PDE4 (Homo sapiens, UniProt Q08499); assay: In-vitro assay for PDE4 enzymes, real-time enzyme-coupled spectrophotometric assay (Table 9); format: biochemical
PDE4B = PDE4B (Homo sapiens, UniProt Q07343); assay: In-vitro assay for PDE4 enzymes, real-time enzyme-coupled spectrophotometric assay, PDE4B Activity (Table 10); format: biochemical
[1] = human PDE4D, activity class, Table 9, read-out: hPDE4D
[2] = human PDE4B (hPDE4B), enzyme-coupled spectrophotometric assay, read-out: PDE4B Activity, hPDE4B

Chain of PDE4B (Q07343 whole entry): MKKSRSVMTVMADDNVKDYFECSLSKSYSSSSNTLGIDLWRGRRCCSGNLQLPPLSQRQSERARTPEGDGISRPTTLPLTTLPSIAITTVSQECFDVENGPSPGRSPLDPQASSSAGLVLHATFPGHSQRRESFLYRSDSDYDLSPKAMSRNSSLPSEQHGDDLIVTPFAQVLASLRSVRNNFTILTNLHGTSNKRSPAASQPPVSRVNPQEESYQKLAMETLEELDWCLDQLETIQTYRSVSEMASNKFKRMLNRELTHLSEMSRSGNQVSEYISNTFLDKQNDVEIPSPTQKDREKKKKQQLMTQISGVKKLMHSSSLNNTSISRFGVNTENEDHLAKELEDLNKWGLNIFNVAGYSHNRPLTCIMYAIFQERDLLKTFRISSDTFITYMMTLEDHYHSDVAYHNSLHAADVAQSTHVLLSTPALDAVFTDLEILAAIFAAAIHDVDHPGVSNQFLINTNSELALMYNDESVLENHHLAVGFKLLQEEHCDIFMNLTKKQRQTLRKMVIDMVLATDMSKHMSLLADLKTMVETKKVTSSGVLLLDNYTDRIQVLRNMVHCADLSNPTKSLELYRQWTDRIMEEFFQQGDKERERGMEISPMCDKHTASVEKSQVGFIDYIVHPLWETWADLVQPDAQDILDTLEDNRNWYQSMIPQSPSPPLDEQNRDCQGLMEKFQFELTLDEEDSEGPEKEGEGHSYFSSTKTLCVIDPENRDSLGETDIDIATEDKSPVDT
Chain of PDE4 (Q08499 whole entry): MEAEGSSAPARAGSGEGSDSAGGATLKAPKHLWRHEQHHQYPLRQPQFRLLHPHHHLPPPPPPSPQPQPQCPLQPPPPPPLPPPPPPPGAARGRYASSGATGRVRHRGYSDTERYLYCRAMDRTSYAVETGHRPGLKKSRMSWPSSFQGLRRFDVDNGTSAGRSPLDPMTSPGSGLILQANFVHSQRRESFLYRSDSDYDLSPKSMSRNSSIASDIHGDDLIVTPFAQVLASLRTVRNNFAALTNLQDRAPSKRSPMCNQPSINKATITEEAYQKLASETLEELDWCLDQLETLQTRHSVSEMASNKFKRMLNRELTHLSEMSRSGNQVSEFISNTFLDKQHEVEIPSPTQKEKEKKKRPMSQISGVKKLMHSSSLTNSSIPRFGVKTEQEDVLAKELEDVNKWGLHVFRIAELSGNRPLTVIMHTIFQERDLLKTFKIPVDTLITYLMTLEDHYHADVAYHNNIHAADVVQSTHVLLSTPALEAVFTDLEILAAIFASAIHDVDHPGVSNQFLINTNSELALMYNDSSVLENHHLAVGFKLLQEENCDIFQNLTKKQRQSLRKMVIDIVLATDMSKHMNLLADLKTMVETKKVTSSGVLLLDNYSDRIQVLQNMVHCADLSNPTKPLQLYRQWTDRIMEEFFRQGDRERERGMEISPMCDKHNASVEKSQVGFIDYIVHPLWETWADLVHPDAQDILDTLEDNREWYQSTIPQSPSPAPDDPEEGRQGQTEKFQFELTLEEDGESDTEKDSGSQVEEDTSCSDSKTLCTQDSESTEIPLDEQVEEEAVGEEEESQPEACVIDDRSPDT

| SMILES | pIC50 (PDE4; [1]) | pIC50 (PDE4B; [2]) | pIC50 (PDE4) | pIC50 (PDE4B) |
| --- | --- | --- | --- | --- |
| COc1ccc(Cc2ccc(NS(C)(=O)=O)cc2)c(F)c1-c1cccc(Cl)c1 [P-227] | > 5.30 | > 5.30 | – | – |
| COc1ccc(-n2cnc3ccc(N)cc32)cc1-c1cccc(Cl)c1 [P-524, 3-(3′-Chloro-6-methoxy-biphenyl-3-yl)-3H-benzoimidazol-5-ylamine] | > 5.30 | > 5.30 | – | – |
| COc1ccc(Cc2cnc(N(C)C)nc2)c(F)c1-c1cccc(C(C)=O)c1 [P-325, 1-[3′-(2-Dimethylamino-pyrimidin-5-ylmethyl)-2′-fluoro-6′-methoxy-biphenyl-3-yl]-ethanone] | > 5.30 | > 5.30 | – | – |
| COc1ccc(Cc2cnc(N3CC(O)C3)nc2)c(F)c1-c1cccc(C#N)c1 [P-417, 2′-Fluoro-3′-[2-(3-hydroxy-azetidin-1-yl)-pyrimidin-5-ylmethyl]-6′-methoxy-biphenyl-3-carbonitrile] | > 5.30 | > 5.30 | – | – |
| COc1ccc(Cc2ccc(Cl)nc2)c(F)c1-c1cccc(Cl)c1 [P-226] | > 5.30 | 4.70 to 5.30 | – | – |
| COc1ccc(Cn2nnc3ccccc32)cc1-c1cccc([N+](=O)[O-])c1 [P-007, 1-(6-Methoxy-3′-nitro-biphenyl-3-ylmethyl)-1H-benzotriazole] | > 5.30 | 4.70 to 5.30 | – | – |
| CCNC(=O)Nc1ccc(Sc2ccc(OC)c(-c3cccc(Cl)c3)c2)cc1 [P-448, 1-[4-(3′-Chloro-6-methoxy-biphenyl-3-ylsulfanyl)-phenyl]-3-ethyl urea] | > 5.30 | > 5.30 | – | – |
| COc1ccc(Cc2ccc(C(N)=O)nc2)c(F)c1-c1cccc(C(C)=O)c1 [P-328, 5-(3′-Acetyl-2-fluoro-6-methoxy-biphenyl-3-ylmethyl)-pyridine-2-carboxylic acid amide] | > 5.30 | > 5.30 | – | – |
| COc1ccc(CN2CCCCS2(=O)=O)cc1-c1cccc([N+](=O)[O-])c1 [P-035, 2-(6-Methoxy-3′-nitro-biphenyl-3-ylmethyl)-[1,2]thiazinane 1,1-dioxide] | > 5.30 | > 5.30 | – | – |
| O=c1ccc(Cc2ccc(O)c(-c3cccc([N+](=O)[O-])c3)c2)n[nH]1 [P-488, 6-(6-Hydroxy-3′-nitro-biphenyl-3-ylmethyl)-2H-pyridazin-3-one] | > 5.30 | 4.70 to 5.30 | – | – |
| COc1ccc(Cc2ccc(N(C)C)cc2)c(F)c1-c1cccc(Cl)c1 [P-303, [4-(3′-Chloro-2-fluoro-6-methoxy-biphenyl-3-ylmethyl)-phenyl]-dimethyl-amine] | > 5.30 | > 5.30 | – | – |
| COc1ccc(Cc2ccc(NC(N)=O)cc2)c(F)c1-c1cccc(Cl)c1 [P-243, [4-(3′-chloro-2-fluoro-6-methoxy-biphenyl-3-ylmethyl)-phenyl]-urea] | > 5.30 | > 5.30 | – | – |
| COc1ccc(COC(C)C)nc1-c1cccc([N+](=O)[O-])c1 [P-030, 6-isopropoxymethyl-3-methoxy-2-(3-nitro-phenyl)-pyridine] | 4.70 to 5.30 | 4.40 to 4.68 | – | – |
| NC(=O)Oc1ccc(Cc2ccc(=O)[nH]n2)cc1-c1cccc([N+](=O)[O-])c1 [P-020, Carbamic acid 3′-nitro-5-(6-oxo-1,6-dihydro-pyridazin-3-ylmethyl)-biphenyl-2-yl ester] | – | – | 4.70 to 5.30 | 4.40 to 4.68 |
| COc1ccc(Cc2ccc(F)cc2)c(F)c1-c1cccc(Cl)c1 [P-187] | > 5.30 | > 5.30 | – | – |
| COc1ccc(Cc2ccc(CNC(=O)CN(C)C)cc2)c(F)c1-c1cccc([N+](=O)[O-])c1 [P-175] | > 5.30 | > 5.30 | – | – |
| COc1ccc(Cn2cccn2)cc1-c1ccc2c(c1)OCO2 [P-074, 1-(3-Benzo[1,3]dioxol-5-yl-4-methoxy-benzyl)-1H-pyrazole] | > 5.30 | 4.70 to 5.30 | – | – |
| COc1ccc(CN2CCCC2=O)cc1-c1ccc(F)c(F)c1 [P-223, 1-(3′,4′-difluoro-6-methoxy-biphenyl-3-ylmethyl)-pyrrolidin-2-one] | 4.70 to 5.30 | 4.70 to 5.30 | – | – |
| COc1ccc(Cc2ccc(N)nc2)cc1-c1cccc([N+](=O)[O-])c1 [P-111] | > 5.30 | > 5.30 | – | – |
| COc1ccc(C2(c3ccc(F)cc3)CCN(C)CC2)cc1-c1cccc(Cl)c1 [P-564, 4-(3′-Chloro-6-methoxy-biphenyl-3-yl)-4-(4-fluoro-phenyl)-1-methyl-piperidine] | 4.70 to 5.30 | 4.40 to 4.68 | – | – |
| CCNC(=O)N1CCC[C@@H]1COc1ccc(Cc2ccc(OC)c(-c3cccc(Cl)c3)c2F)cn1 [P-533, (R)-2-[5-(3′-Chloro-2-fluoro-6-methoxy-biphenyl-3-ylmethyl)-pyridin-2-yloxymethyl]-pyrrolidine-1-carboxylic acid ethylamide] | > 5.30 | > 5.30 | – | – |
| COc1ccc(CC2CCCS2)c(F)c1-c1cccc([N+](=O)[O-])c1 (stereo not shown) [P-127] | > 5.30 | > 5.30 | – | – |
| COC(=O)c1cccc(-c2cc(Cn3cncn3)ccc2OC)c1 [P-022, 2′-Methoxy-5′-[1,2,4]triazol-1-ylmethyl-biphenyl-3-carboxylic acid methyl ester] | > 5.30 | 4.70 to 5.30 | – | – |
| COc1ccc(Cc2c(C)nn(CC(N)=O)c2C)cc1-c1cccc([N+](=O)[O-])c1 [P-101, 2-[4-(6-Methoxy-3′-nitro-biphenyl-3-ylmethyl)-3,5-dimethyl-pyrazol-1-yl]-acetamide] | > 5.30 | > 5.30 | – | – |

| SMILES | pIC50 (PDE4; [1]) | pIC50 (PDE4B; [2]) | pIC50 (PDE4) | pIC50 (PDE4B) |
| --- | --- | --- | --- | --- |
| [2H]C(O)(c1ccc([N+](=O)[O-])cc1)c1ccc(OC)c(-c2cccc(Cl)c2)c1 (stereo not shown) [P-583] | > 5.30 | 4.70 to 5.30 | – | – |
| COc1ccc(Oc2ccc(=O)[nH]n2)cc1-c1cccc([N+](=O)[O-])c1 [P-015, 6-(6-Methoxy-3′-nitro-biphenyl-3-yloxy)-2H-pyridazin-3-one] | > 5.30 | 4.40 to 4.68 | – | – |
| COc1ccc(Cc2c(C)noc2C)c(O)c1-c1cccc([N+](=O)[O-])c1 [P-174] | > 5.30 | > 5.30 | – | – |
| COc1ccc(Cn2cc(NC(C)=O)ccc2=O)cc1-c1cccc([N+](=O)[O-])c1 [P-211, N-[1-(6-Methoxy-3′-nitro-biphenyl-3-ylmethyl)-6-oxo-1,6-dihydro-pyridin-3-yl]-acetamide] | 4.70 to 5.30 | 4.70 to 5.30 | – | – |
| COc1ccc(Cc2ccc(F)cc2O)cc1-c1cccc([N+](=O)[O-])c1 [P-119, 5-Fluoro-2-(6-methoxy-3′-nitro-biphenyl-3-ylmethyl)-phenol] | > 5.30 | > 5.30 | – | – |
| COc1ccc(Cc2ccc3nc(N)oc3c2)c(F)c1-c1cccc(Cl)c1 [P-285] | > 5.30 | 4.70 to 5.30 | – | – |
| COc1ccc(Cn2ccnc2)cc1-c1ccc2nonc2c1 [P-006, 5-(5-Imidazol-1-ylmethyl-2-methoxy-phenyl)-benzo[1,2,5]oxadiazole] | > 5.30 | > 5.30 | – | – |
| COc1ccc(Cc2ccc(N3CC(O)C3)nc2)c(F)c1-c1cccc(Cl)c1 [P-457, 1-[5-(3′-Chloro-2-fluoro-6-methoxy-biphenyl-3-ylmethyl)-pyridin-2-yl]-azetidin-3-ol] | > 5.30 | > 5.30 | – | – |
| COc1ccc(Cc2ccc(C(N)=O)cc2)cc1-c1cccc(Cl)c1 [P-240, 4-(3′-Chloro-6-methoxy-biphenyl-3-ylmethyl)-benzamide] | > 5.30 | 4.70 to 5.30 | – | – |
| COc1ccc(Cc2ccc(Cl)nc2)c(F)c1-c1cccc([N+](=O)[O-])c1 [P-152] | > 5.30 | > 5.30 | – | – |
| COc1ccc(Cc2ccc(O)cc2)c(F)c1-c1cccc(Cl)c1 [P-216] | > 5.30 | > 5.30 | – | – |
| COc1ccc(Cc2ccc(NC(N)=O)cc2)cc1-c1cccc(Cl)c1 [P-378, [4-(3′-chloro-6-methoxy-biphenyl-3-ylmethyl)-phenyl]-urea] | > 5.30 | > 5.30 | – | – |
| COc1ccc(Cc2ccc(F)cc2)c(N)c1-c1cccc([N+](=O)[O-])c1 [P-176, 3-(4-fluoro-benzyl)-6-methoxy-3′-nitro-biphenyl-2-ylamine] | > 5.30 | > 5.30 | – | – |
| COc1ccc(Cc2ccc(NC(N)=O)cc2)cc1-c1cccc(C#N)c1 [P-394, [4-(3′-Cyano-6-methoxy-biphenyl-3-ylmethyl)-phenyl]-urea] | > 5.30 | > 5.30 | – | – |
| Oc1ccc(Cc2ccc(F)cc2)c(F)c1-c1cccc(Br)c1 [P-496] | > 5.30 | > 5.30 | – | – |
| COc1ccc(Cn2cc(-c3cnccn3)cn2)c(F)c1-c1cccc(Cl)c1 [P-545, 2-[1-(3′-Chloro-2-fluoro-6-methoxy-biphenyl-3-ylmethyl)-1H-pyrazol-4-yl]-pyrazine] | > 5.30 | > 5.30 | – | – |
| COc1ccc(Cn2nc3ccccn3c2=O)cc1-c1cccc([N+](=O)[O-])c1 [P-047, 2-(6-Methoxy-3′-nitro-biphenyl-3-ylmethyl)-2H-[1,2,4]triazolo[4,3-a]pyridin-3-one] | 4.70 to 5.30 | > 5.30 | – | – |
| COc1ccc(CN2CCCC2=O)cc1-c1ccc2c(c1)OCO2 [P-045, 1-(3-Benzo[1,3]dioxol-5-yl-4-methoxy-benzyl)-pyrrolidin-2-one] | 4.40 to 4.70 | 4.70 to 5.30 | – | – |
| COc1ccc(Cc2ccc(Cl)nc2)c(O)c1-c1cccc([N+](=O)[O-])c1 [P-126] | > 5.30 | > 5.30 | – | – |
| COc1ccc(Cc2ccc(-n3cnnn3)nc2)c(F)c1-c1cccc(Cl)c1 [P-422, 5-(3′-chloro-2-fluoro-6-methoxy-biphenyl-3-ylmethyl)-2-tetrazol-1-yl-pyridine] | > 5.30 | > 5.30 | – | – |
| COc1c(F)cc(Cc2ccc(NC(N)=O)cc2)cc1-c1cccc(Cl)c1 [P-550, [4-(3′-chloro-5-fluoro-6-methoxy-biphenyl-3-ylmethyl)-phenyl]-urea] | > 5.30 | > 5.30 | – | – |
| COc1ccc(Cn2cncn2)cc1-c1cccc(OC(F)(F)F)c1 [P-084, 1-(6-Methoxy-3′-trifluoromethoxy-biphenyl-3-ylmethyl)-1H-[1,2,4]triazole] | > 5.30 | 4.70 to 5.30 | – | – |
| COc1ccc(CN2CCNC(=O)C2)c(F)c1-c1cccc(Cl)c1 [P-623] | > 5.30 | 4.70 to 5.30 | – | – |
